Test results published in patent US20100143886A1, “IN VIVO HCV RESISTANCE TO ANTI-VIRAL INHIBITORS” (priority 2007, published 2010).
“Also recorded” adds a separate entry of the source.

Tests used:
HCV genotype 3a = assay: Viral load by commercial RT-TaqMan assay, chimpanzee dosed with Compound A (Example 3); type: in vivo; settings: 2 mg per kg IV for 7 days, level of quantitation 20 IU/ml
Method: A chimpanzee infected with a HCV genotype 3a from a human was dosed with Compound A (a N5B polymerase inhibitor) for 7 days at 2 mg per kg IV. Plasma samples were collected prior, during, and after the dosing regimen, with viral load determined by a commercial viral load assay (RT-TaqMan, level of quantitation 20 IU/ml, Cenetron Diagnostics, Austin, Tex. 78758).

HCV genotype 1a = assay: Viral load by commercial RT-TaqMan assay, chimpanzees dosed with Compound B (Example 1); type: in vivo, chimpanzee; settings: two chimpanzees, oral 5 mg per kg b.i.d. for 7 days; level of quantitation 20 IU/ml
Method: Two chimpanzees chronically infected with HCV genotype 1a from a human were orally dosed with Compound B (a NS3 protease inhibitor) for 7 days at 5 mg per kg b.i.d. Plasma samples were collected prior, during, and after the dosing regimen, with viral load determined by a commercial viral load assay (RT-TaqMan, level of quantitation 20 IU/ml, Cenetron Diagnostics, Austin, Tex. 78758).

Compound: C[C@@]1(O)[C@H](O)[C@@H](CO)O[C@H]1n1ccc2c(N)ncnc21 [Compound A]
- viral load suppression (HCV genotype 3a): below the limit of quantitation (BLQ); also recorded: below quantifiable levels

Compound: CC[C@@H]1C[C@]1(NC(=O)[C@@H]1C[C@@H]2CN1C(=O)[C@H](C(C)(C)C)NC(=O)OCC(C)(C)CCCCc1cccc3c1CN(C3)C(=O)O2)C(=O)NS(=O)(=O)C1CC1 [Compound B]
- viral load suppression (HCV genotype 1a): below quantifiable levels; also recorded: below the limit of quantitation (BLQ)
